Experimental data from US7432276B2, “ABCA1 elevating compounds” (CV Therapeutics, Inc., priority 2005, dated 2008).

tested on: ABCA1 mRNA; assay: ABCA1 mRNA induction in THP-1 cells, QuantiGene branched DNA assay; format: cell-based; settings: 10 μM test compound, 18-20 hours
How it was run: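 THP-1 cells, grown to subconfluence, treated with compounds at 10 and 3 μM in DMEM/BSA for 18–20 h. Lysates hybridized with ABCA1-specific probe 16–18 h at 53 °C; QuantiGene branched DNA luminescence gives fold increase over DMSO.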

Molecule	ABCA1 Induction Fold Increase over DMSO Vehicle [FOLD INCREASE]
CC1(C)c2cc(C(O)(C(F)(F)F)C(F)(F)F)ccc2N[C@H]2c3cc(Br)ccc3OC[C@H]21 [Number 2, 2-((6aS,12aR)-2-bromo-7,7-dimethyl(7,12,12a,6a-tetrahydrochromano[4,3-b]quinolin-9-yl))-1,1,1,3,3,3-hexafluoropropan-2-ol]	5.1
CC1(C)c2cc(C(O)(C(F)(F)F)C(F)(F)F)ccc2NC2c3cc(F)cc(F)c3OCC21 (stereo not shown) [Number 67, 2-(2,4-difluoro-7,7-dimethyl(7,12,12a,6a-tetrahydrochromano[4,3-b]quinolin-9-yl))-1,1,1,3,3,3-hexafluoropropan-2-ol]	3.3
CC1(C)c2cc(C(O)(C(F)(F)F)C(F)(F)F)ccc2NC2c3cc(Cl)cc(Cl)c3OCC21 (stereo not shown) [Number 68, 2-(2,4-dichloro-7,7-dimethyl(7,12,12a,6a-tetrahydrochromano[4,3-b]quinolin-9-yl))-1,1,1,3,3,3-hexafluoropropan-2-ol]	2.7
CCS(=O)(=O)N1CCN(C(=O)c2cnn(-c3ccc4c(c3)C(C)(C)[C@H]3COc5cccc(OC)c5[C@H]3N4)c2C)CC1 [Number 140, 1-((6aR,12aS)-6a,7,12,12a-tetrahydro-1-methoxy-7,7-dimethyl-6H-chromeno[4,3-b]quinolin-9-yl)-5-methyl-1H-pyrazole-4-((4-ethanesulfonylpiperazin-1-yl)methanone)]	5.1
COc1cccc2c1OCC1C2Nc2ccc(CC(=O)O)cc2C1(C)C (stereo not shown) [Number 26, 2-(4-methoxy-7,7-dimethyl-7,12,12a,6a-tetrahydrochromano[4,3-b]quinolin-9-yl)acetic acid]	5.0
COc1cccc2c1[C@H]1Nc3ccc(-c4ccc(S(N)(=O)=O)cc4)cc3C(C)(C)[C@@H]1CO2 [Number 97, 4-((12aS,6aS)-1-methoxy-7,7-dimethyl-7,12,12a,6a-tetrahydrochromano[4,3-b]quinolin-9-yl)benzenesulfonamide]	5.7
COc1cccc2c1OC[C@H]1C2Nc2ccc(C(O)(C(F)(F)F)C(F)(F)F)cc2C1(C)C (stereo partly drawn) [Number 34, 2-((6aR)-4-methoxy-7,7-dimethyl(7,12,12a,6a-tetrahydrochromano[4,3-b]quinolin-9-yl))-1,1,1,3,3,3-hexafluoropropan-2-ol]	4.5
CCOC(=O)c1ccc(-c2ccc3c(c2)C(C)(C)[C@@H]2COc4cccc(OC)c4[C@H]2N3)cc1 [Number 96, ethyl 4-((12aS,6aS)-1-methoxy-7,7-dimethyl-7,12,12a,6a-tetrahydrochromano[4,3-b]quinolin-9-yl)benzoate]	7.6
CC1(C)c2cc(C(O)(C(F)(F)F)C(F)(F)F)ccc2N[C@H]2c3ccccc3OC[C@H]21 [Number 70, 2-((6aS,12aR)-7,7-dimethyl(7,12,12a,6a-tetrahydrochromano[4,3-b]quinolin-9-yl))-1,1,1,3,3,3-hexafluoropropan-2-ol]	4.0
COC(=O)/C=C/c1ccc2c(c1)C1Nc3ccc(C(O)(C(F)(F)F)C(F)(F)F)cc3C(C)(C)C1CO2 (stereo not shown) [Number 35, methyl (2E)-3-{7,7-dimethyl-9-[2,2,2-trifluoro-1-hydroxy-1-(trifluoromethyl)ethyl](7,12,12a,6a-tetrahydrochromano[4,3-b]quinolin-2-yl)}prop-2-enoate]	4.3
CC(=O)c1ccc2c(c1)C(C)(C)C1COc3c(F)cccc3C1N2 (stereo not shown) [Number 101, 1-(4-fluoro-7,7-dimethyl-7,12,12a,6a-tetrahydrochromano[4,3-b]quinolin-9-yl)ethan-1-one]	4.0
COc1cccc2c1OCC1C2Nc2ccc(C(N)=S)cc2C1(C)C (stereo not shown) [Number 58, amino(4-methoxy-7,7-dimethyl(7,12,12a,6a-tetrahydrochromano[4,3-b]quinolin-9-yl))methane-1-thione]	6.2
COc1cccc2c1OCC1C2Nc2ccc(Cc3nnn[nH]3)cc2C1(C)C (stereo not shown) [Number 76, 4-methoxy-7,7-dimethyl-9-(1,2,3,4-tetraazol-5-ylmethyl)-7,12,12a,6a-tetrahydrochromano[4,3-b]quinoline]	6.0
CC1(C)c2cc(C(O)(C(F)(F)F)C(F)(F)F)ccc2NC2c3ccc(C(=O)O)cc3OCC21 (stereo not shown) [Number 14, 7,7-dimethyl-9-[2,2,2-trifluoro-1-hydroxy-1-(trifluoromethyl)ethyl]-7,12,12a,6a-tetrahydrochromano[4,3-b]quinoline-3-carboxylic acid]	3.1
COc1cccc2c1[C@H]1Nc3cc(C#N)ccc3C(C)(C)[C@H]1CO2 [Number 63, (12aS,6aR)-1-methoxy-7,7-dimethyl-7,12,12a,6a-tetrahydrochromano[4,3-b]quinoline-10-carbonitrile]	3.5
methylethyl 3-(4-methoxy-7,7-dimethyl-7,12-dihydro-6H-chromeno[4,3-b]quinolin-9-yl)benzoate [Number 61]	2.0
COc1cccc2c1[C@H]1Nc3ccc(Cc4nnn[nH]4)cc3C(C)(C)[C@H]1CO2 [Number 84, (12aS,6aR)-1-methoxy-7,7-dimethyl-9-(1,2,3,4-tetraazol-5-ylmethyl)-7,12,12a,6a-tetrahydrochromano[4,3-b]quinoline]	8.6
COc1cccc2c1[C@H]1Nc3ccc(-c4ccc(C(=O)O)cc4)cc3C(C)(C)[C@H]1CO2 [Number 106, 4-((12aS,6aR)-1-methoxy-7,7-dimethyl-7,12,12a,6a-tetrahydrochromano[4,3-b]quinolin-9-yl)benzoic acid]	4.8
CCOc1ccc2c(c1)C(C)(C)[C@H]1COc3cccc(OC)c3[C@H]1N2 [Number 56, (12aS,6aR)-9-ethoxy-1-methoxy-7,7-dimethyl-7,12,12a,6a-tetrahydrochromano[4,3-b]quinoline]	4.8
COc1cccc2c1C1Nc3ccc(C(C)(C)C)cc3C(C)(C)C1CO2 (stereo not shown) [Number 88, 9-(tert-butyl)-1-methoxy-7,7-dimethyl-7,12,12a,6a-tetrahydrochromano[4,3-b]quinoline]	6.8
COc1cccc2c1OCC1C2Nc2ccc(N3CCS(=O)(=O)CC3)cc2C1(C)C (stereo not shown) [Number 21, 4-(4-methoxy-7,7-dimethyl-7,12,12a,6a-tetrahydrochromano[4,3-b]quinolin-9-yl)-1,4-thiazaperhydroine-1,1-dione]	5.6

same assay, conditions: Homo sapiens, 10 μM test compound, 18-20 hours, read-out: ABCA1 Induction Fold Increase over DMSO Vehicle

Molecule	fold induction at 10 µM
COC(=O)c1ccc2c(c1)C(C)(C)[C@H]1COc3c(OC)cc(-c4cn[nH]c4)cc3[C@H]1N2 [Number 161, (6aR,12aS)-methyl 6a,7,12,12a-tetrahydro-4-methoxy-7,7-dimethyl-2-(1H-pyrazol-4-yl)-6H-chromeno[4,3-b]quinoline-9-carboxylate]	8.1
CC1(C)C2=C(Nc3ccc(B(O)O)cc31)c1ccc(C(=O)O)cc1OC2 [Number 17, 9-(dihydroxyboramethyl)-7,7-dimethyl-7,12-dihydro-6H-chromeno[4,3-b]quinoline-3-carboxylic acid]	1.8
COC(=O)CCN1c2ccccc2C(C)(C)[C@@H]2COc3cccc(OC)c3[C@@H]21 [Number 170, methyl 3-((6aS,12aR)-6a,7-dihydro-1-methoxy-7,7-dimethyl-6H-chromeno[4,3-b]quinolin-12(12aH)-yl)propanoate]	2.3
CCCN1c2ccccc2C(C)(C)[C@H]2COc3cccc(OC)c3[C@H]21 [Number 172, (6aR,12aS)-12-propyl-6a,7,12,12a-tetrahydro-1-methoxy-7,7-dimethyl-6H-chromeno[4,3-b]quinoline]	1.7
CCOP(=O)(Cc1ccc2c(c1)C(C)(C)[C@H]1COc3c(OC)cc(-c4cn[nH]c4)cc3[C@H]1N2)OCC [Number 181, diethyl((6aR,12aS)-6a,7,12,12a-tetrahydro-4-methoxy-7,7-dimethyl-2-(1H-pyrazol-4-yl)-6H-chromeno[4,3-b]quinolin-9-yl)methylphosphonate]	4.9
CCS(=O)(=O)N1CCN(C(=O)c2ccc3c(c2)C(C)(C)[C@H]2COc4c(OC)cccc4[C@H]2N3)CC1 [Number 134, ((6aR,12aS)-4-methoxy-6a,7,12,12a-tetrahydro-7,7-dimethyl-6H-chromeno[4,3-b]quinolin-9-yl)(4-ethanesulfonylpiperazin-1-yl)methanone]	5.8
CCOC(=O)c1cnn(-c2ccc3c(c2)C(C)(C)[C@H]2COc4cccc(OC)c4[C@H]2N3)c1 [Number 135, ethyl 1-((6aR,12aS)-6a,7,12,12a-tetrahydro-1-methoxy-7,7-dimethyl-6H-chromeno[4,3-b]quinolin-9-yl)-1H-pyrazole-4-carboxylate]	6.4
COC(=O)c1ccc2c(c1)C(C)(C)[C@H]1COc3c(OC)cc(Br)cc3[C@H]1N2 [Number 151, (6aR,12aS)-methyl 2-bromo-6a,7,12,12a-tetrahydro-4-methoxy-7,7-dimethyl-6H-chromeno[4,3-b]quinoline-9-carboxylate]	6.3
COc1cccc2c1[C@H]1Nc3ccc(S(C)(=O)=O)cc3C(C)(C)[C@H]1CO2 [Number 122, (6aR,12aS)-6a,7,12,12a-tetrahydro-1-methoxy-7,7-dimethyl-9-(methylsulfonyl)-6H-chromeno[4,3-b]quinoline]	2.4
COc1cccc2c1[C@H]1Nc3ccc(C(=O)N(C)C)cc3C(C)(C)[C@H]1CO2 [Number 123, (6aR,12aS)-6a,7,12,12a-tetrahydro-1-methoxy-N,N,7,7-tetramethyl-6H-chromeno[4,3-b]quinoline-9-carboxamide]	6.5
